Data set [1] relates to ApoB mRNA. As to the kind of experiment: ApoB mRNA level in liver, Balb/c mice dosed i.p. twice per week for three weeks (Table 29); EC50 in liver. It is filed as in vivo, mouse. Particulars: Table 30, Balb/c mice, 2.4 μmol/kg. Here is the method:
Prior to quantitative PCR analysis, primer-probe sets specific to the target gene being measured were evaluated for their ability to be “multiplexed” with a GAPDH amplification reaction. After isolation the RNA is subjected to sequential reverse transcriptase (RT) reaction and real-time PCR, both of which are performed in the same well. RT and PCR reagents were obtained from Invitrogen Life Technologies (Carlsbad, Calif.). […] The RT reaction was carried out by incubation for 30 minutes at 48° C. Following a 10 minute incubation at 95° C. to activate the PLATIN 9M® Taq, 40 cycles of a two-step PCR protocol were carried out: 95° C. for 15 seconds (denaturation) followed by 60° C. for 1.5 minutes (annealing/extension).
170 μL of RiboGreen® working reagent (RiboGreen® reagent diluted 1:350 in 10 mM Tris-HCl, 1 mM EDTA, pH 7.5) was pipetted into a 96-well plate containing 30 μL purified cellular RNA. The plate was read in a CytoFluor® 4000 (PE Applied Biosystems) with excitation at 485 nm and emission at 530 nm.
(§1) Antisense compound doses included 2.4, 1.2, 0.6, 0.3 and 0.15 μmol/kg. For antisense compounds 14 nucleotides in length, these doses equate to approximately 12, 6, 3, 1.5 or 0.75 mg/kg, respectively. Shown in Table 25 are the sequences and motifs of the antisense compounds used in this study. […] Bolded residues indicate 2′-O-methoxyethyl moieties and italicized residues indicate methyleneoxy (4′-CH2—O-2′) BNAs. The internucleoside linkages of each compound are phosphorothioate throughout. All cytosine residues of ISIS 147764 and ISIS 372938 are replaced by 5-methyl cytosines. For ISIS 387462, only the cytosine residue in the wing of the compound is replaced by 5-methyl cytosine. ApoB antisense compounds are targeted to publicly available ApoB-100 sequences, including Genbank Accession No. XM—137955.5 (SEQ ID NO: 2).
(§2) Forty-eight hours following the final injection, mice were sacrificed to evaluate transaminases (Table 26); liver and kidney weight (Table 27); triglyceride, LDL, HDL and free fatty acid levels (Table 28); target mRNA level in liver (Table 29); target protein level in plasma; and oligonucleotide tissue concentration (Table 30). These endpoints were determined using methods described herein and well known to those of ordinary skill in the art.
The EC50 for ISIS 387462 in the liver was determined by comparing oligonucleotide concentration in the liver to inhibition of ApoB mRNA.

Data set [2] in a line: ALT and AST levels and adverse side effects, ApoB study (Table 26). The format is in vivo, mouse. Particulars: Balb/c mice, i.p. twice per week for three weeks, 2.4 μmol/kg, 48 h after final injection. Here is the method: as §1, §2
The next data set deals with GCGR mRNA. As to the kind of experiment: Antisense inhibition of GCGR in HepG2 cells (Table 79). It is filed as cell-based, human. Particulars: HepG2 cells, relative to untreated control cells. Here is the method:
Short antisense compounds targeted to a GCGR nucleic acid were tested for their effects on GCGR mRNA in vitro.
Cultured HepG2 cells at a density of 10000 cells per well in a 96-well plate were treated as described herein with 25, 50, 100 or 200 nM of antisense oligonucleotide. After the treatment period, RNA was isolated from the cells and GCGR mRNA levels were measured by quantitative real-time PCR, as described herein. GCGR mRNA levels were adjusted according to total RNA content as measured by RIBOGREEN®. Results are presented as percent reduction in GCGR mRNA, relative to untreated control cells.

A further data set concerns monkey GCGR mRNA. The experiment in a line: Antisense inhibition of GCGR in primary monkey hepatocytes (Table 80). Particulars: relative to untreated control cells. It is filed as cell-based. Here is the method:
Additional short antisense compounds targeted to a GCGR nucleic acid were tested for their effects on monkey GCGR mRNA in vitro. Cultured primary monkey hepatocytes were treated as described herein with 25, 50, 100 or 200 nM of short antisense compound. After the treatment period, RNA was isolated from the cells and GCGR mRNA levels were measured by quantitative real-time PCR, as described herein. GCGR mRNA levels were adjusted according to total RNA content as measured by RIBOGREEN®. Results are presented in Table 80 as percent reduction in GCGR mRNA, relative to untreated control cells.

Data set [3] concerns ApoB mRNA. As to the kind of experiment: ApoB mRNA in liver, Balb/c mice, BNA short antisense compounds twice per week for three weeks (Table 89). The conditions noted are these: relative to saline. It is filed as in vivo, mouse. Here is the method: The short antisense compounds shown in Table 88 were tested for their effects in vivo. […] A 5-10-5 MOE gapmer was used for a control treatment. Mice were sacrificed approximately 48 hours following the final dose. Liver tissue was collected for RNA isolation, and blood was collected for serum chemistry analyses. ApoB mRNA levels were measured by real-time PCR as described herein. ApoB mRNA levels were normalized to RNA levels as determined by RIBOGREEN, and are presented in Table 89 as percent inhibition relative to ApoB mRNA levels in saline-treated control animals.

Data set [4] has as its system ApoB mRNA. As to the kind of experiment: ApoB mRNA in liver and ED50, single dose of BNA short antisense compounds (Table 92). It is filed as in vivo, mouse. Particulars: ApoB mRNA in liver; for % Inhib: Balb/c mice, relative to saline. Here is the method:
The short antisense compounds tested were ISIS 387462 and ISIS 398296. Each dose group consisted of four animals. A 5-10-5 MOE gapmer was used for a control treatment. Mice were sacrificed approximately 48 hours following the final dose. Liver tissue was collected for RNA isolation, and blood was collected for serum chemistry analyses. ApoB mRNA levels were measured by real-time PCR as described herein. ApoB mRNA levels were normalized to RNA levels as determined by RIBOGREEN, and are presented in Table 92 as percent inhibition relative to ApoB mRNA levels in saline-treated control animals.
At the 8 umol/kg dose, ApoB inhibition by the short antisense compounds was greater than observed with a 5-10-5 MOE gapmer at an equivalent dose. […] Triglycerides were reduced at the highest dose.

Data set [5] relates to PTP1B mRNA. As to the kind of experiment: Antisense inhibition of human PTP1B in HuVEC cells, 3 nM (Table 84). It is filed as cell-based. Here is the method:
Short antisense compounds targeted to a PTP1B nucleic acid were tested for their effects on PTP1B mRNA in vitro. Cultured HuVEC cells at a density of 5000 cells per well in a 96-well plate were treated as described herein with 3 nM of short antisense compound. After the treatment period, RNA was isolated from the cells and PTP1B mRNA levels were measured by quantitative real-time PCR, as described herein. PTP1B mRNA levels were adjusted according to total RNA content as measured by RIBOGREEN®. Results are presented as percent inhibition of PTP1B (% Inhib), relative to untreated control cells.

Data set [6] concerns PTP1B mRNA. As to the kind of experiment: Antisense inhibition of human PTP1B in HepG2 cells, 25 nM (Table 85). The format is cell-based. Here is the method:
Short antisense compounds targeted to a PTP1B nucleic acid were tested for their effects on PTP1B mRNA in vitro. Cultured HepG2 cells at a density of 10000 cells per well in a 96-well plate were treated with 25 nM of antisense oligonucleotide. After the treatment period, RNA was isolated from the cells and PTP1B mRNA levels were measured by quantitative real-time PCR, as described herein. PTP1B mRNA levels were adjusted according to total RNA content as measured by RIBOGREEN®. Results are presented as percent inhibition (% Ihib) of PTP1B, relative to untreated control cells.

The test system of data set [7] is PTP1B mRNA. As to the kind of experiment: Dose response for human PTP1B in HuVEC cells, PPS 198 and PPS 3000 (Tables 86, 87). It is filed as cell-based. Here is the method: Human vascular endothelial (HuVEC) cells were plated at a density of 5000 cells per well and treated as described herein with nM concentrations of short antisense compound as indicated in Table 86. After the treatment period, RNA was isolated from the cells and PTP1B mRNA levels were measured by quantitative real-time PCR, as described herein. PTP1B mRNA levels were adjusted according to total RNA content as measured by RIBOGREEN®. Two different human PTP1B primer probe sets were used to measure mRNA levels. Results with Primer Probe Set (PPS) 198 are shown in Table 86, and results with Primer Probe Set (PPS) 3000 are shown in Table 87. Results are presented as percent inhibition of PTP1B mRNA expression relative to untreated control cells.

Strand notation (5' to 3'): a small letter for the sugar, then the base; units joined by * are phosphorothioate-linked, units joined directly phosphodiester-linked; [ ] holds rarer units or linkages, { } end groups; capitals alone tell only the bases. e = 2'-O-(2-methoxyethyl) (MOE); [5mC] = 5-methylcytosine; d = 2'-deoxy (DNA)

Usually % Inhibition stands for how much of the control response was suppressed. In general, ED50 refers to the midpoint of the dose-response relation.

In the case of “147764 (antisense eG*eT*e[5mC]*e[5mC]*e[5mC]*dT*dG*dA*dA*dG*dA*dT*dG*dT*d[5mC]*eA*eA*eT*eG*e[5mC]) [compound 147764]”, the “ApoB mRNA level” value in the data set on ApoB mRNA [1] was 58 % of saline control. The same substance had an AST in data set [2] of 64.0 IU/L.
“327161 (antisense eA*eG*e[5mC]*dT*dG*d[5mC]*dT*dG*dT*dA*d[5mC]*eA*eT*e[5mC]) [compound 327161]”: the “percent reduction in GCGR mRNA” value with GCGR mRNA (25 nM) was −36%; in the data set on GCGR mRNA (50 nM), −30%; with GCGR mRNA (100 nM), −33%; in the data set on GCGR mRNA (200 nM), −64%; in the data set on monkey GCGR mRNA (25 nM), −19%; in the data set on monkey GCGR mRNA (50 nM), −33%. In addition, the “percent reduction in GCGR mRNA” value in the data set on monkey GCGR mRNA (100 nM) is recorded as −55%; in the data set with monkey GCGR mRNA (200 nM) it was −54%.
Regarding “398296 (GGTACATGGAAGTC; 2-10-2 (6'S)-6'-methyl BNA gapmer, chemistry not fully specified) [compound 398296]”, the “% Inhib” value in the data set on ApoB mRNA [3] (i.p. 0.1 umol/kg twice per week for three weeks) is 17%; with ApoB mRNA [3] (i.p. 0.32 umol/kg twice per week for three weeks), 35%; with ApoB mRNA [3] (i.p. 1 umol/kg twice per week for three weeks), 80%; with ApoB mRNA [3] (i.p. 3.2 umol/kg twice per week for three weeks), 98%; in the data set on ApoB mRNA [4] (single i.p. injection 1 umol/kg) it was 19%; in the data set on ApoB mRNA [4] (single i.p. injection 2 umol/kg), 54%. For the same substance, the entries for the “% Inhib” value in the data set with ApoB mRNA [4] (single i.p. injection 4 umol/kg) and in the data set on ApoB mRNA [4] (single i.p. injection 8 umol/kg) were 81% and 97%, respectively.
For “399301 (GTGTGCACACAGCT; all C 5-methyl, all phosphorothioate, sugars by position not given here; further chemistry not fully specified) [compound 399301]”, the “% Inhib” value in the data set on PTP1B mRNA [5] is 55%; in the data set with PTP1B mRNA [6] it was 43%. In addition, the “% Inhibition” value in the data set with PTP1B mRNA [7] (PPS 198, 1.11 nM) is 8%; in the data set on PTP1B mRNA [7] (PPS 198, 3.33 nM), 63%; with PTP1B mRNA [7] (PPS 198, 10.0 nM) it was 91%; in the data set on PTP1B mRNA [7] (PPS 198, 30.0 nM), 97%; with PTP1B mRNA [7] (PPS 3000, 1.11 nM), 16%; in the data set with PTP1B mRNA [7] (PPS 3000, 3.33 nM), 65%. Also, the “% Inhibition” value with PTP1B mRNA [7] (PPS 3000, 10.0 nM) was determined as 93%; in the data set on PTP1B mRNA [7] (PPS 3000, 30.0 nM), 99%.
Regarding “404137 (antisense e[5mC]*eA*dG*dT*dG*dT*dG*d[5mC]*dA*d[5mC]*dA*d[5mC]*eA*eG) [compound 404137]”, the “% Inhib” value amounted to 76% with PTP1B mRNA [5] and 71% in the data set on PTP1B mRNA [6].
As for “404138 (antisense e[5mC]*eT*d[5mC]*dA*dG*dT*dG*dT*dG*d[5mC]*dA*d[5mC]*eA*e[5mC]) [compound 404138]”, the “% Inhib” value with PTP1B mRNA [5] is 76%; in the data set on PTP1B mRNA [6] it was 86%.
In the case of “404139 (eG*eT*dG*d[5mC]*dA*d[5mC]*dA*d[5mC]*dA*dG*d[5mC]*dT*eG*eA) [compound 404139]”, the “% Inhib” value is reported as 80% in the data set on PTP1B mRNA [5] and 45% in the data set on PTP1B mRNA [6].
With “404140 (eG*e[5mC]*dA*d[5mC]*dA*d[5mC]*dA*dG*d[5mC]*dT*dG*dA*eG*eG) [compound 404140]”, the “% Inhib” value is listed as 73% in the data set on PTP1B mRNA [5] and 93% with PTP1B mRNA [6].
For the substance “ISIS 398296: GGTACATGGAAGTC 2-10-2 (6′S)-6′-methyl-Methyleneoxy BNA, Unmodified Cytosines, ApoB (2-10-2 6'-(S)-methyl BNA gapmer, chemistry not fully specified)”, the ED50 with ApoB mRNA [4] (single i.p. injection) was 8.7 mg/kg.

Source of the values: patent publication US8372967B2, “Compounds and methods for modulating expression of GCCR” (Isis Pharmaceuticals, Inc., priority 2006, dated 2013).
